Laboratory results published in US8143315B2, “Salts of the active substance rasagiline” (priority 2006, dated 2012).
Where a name gives a salt, the structure may show the parent alone. Read-outs that look alike come from different tables or passages of the source.

Assays:
[1] = for appearance: 60° C., closed glass bottle; for appearance / agglomerates of the salt as produced: immediately after production (general description); for formation of agglomerates after long storage: above all dry storage (general description); for agglomerates after storage: storage in a closed glass bottle (general description, time not stated)
[2] = Particle size distribution by laser diffraction; conditions: for d(0.1) ± SD / d(0.5) ± SD / d(0.9) ± SD: average of three measurement cycles, dispersant low-viscosity paraffin
[3] = Determination of solubility; conditions: for pH of the saturated solution / solubility: one-hour storage at 37° C.; for solubility: HPLC; for solubility in words: general description
[4] = Determination of hygroscopicity (storage in humidity chambers); assay type: physicochemical; conditions: storage below 93% humidity, room temperature
[5] = tablets, 60° C. closed glass bottle
[6] = for appearance after storage under humid conditions: 40° C., 75% relative humidity in an open glass bottle (general description, time not stated); for total content of chemical contaminations / water content / appearance: 40° C./75% relative humidity, open glass bottle
[7] = Direct compression without mannitol, 4 weeks
[8] = Direct compression without mannitol, initial value
[9] = Granulation 1 with mannitol (55%), 4 weeks
[10] = Granulation 1 with mannitol (55%), initial value
[11] = Granulation 2 without mannitol, 4 weeks
[12] = Granulation 2 without mannitol, initial value
[13] = Granulation 1 with mannitol (55%)

Row | appearance ([1]; 4 weeks) | appearance ([1]; 8 weeks) | appearance ([1]; 12 weeks) | formation of agglomerates after long storage [1] | fraction ≦ 250 μm [2] | d(0.1) ± SD [2] | d(0.5) ± SD [2] | d(0.9) ± SD [2] | pH of the saturated solution ([3]; 0.1 N HCl) | pH of the saturated solution ([3]; Demineralized water) | water absorption (hygroscopicity) [4] | portion of decomposed active substance [5, 7] | portion of decomposed active substance [5, 8] | portion of decomposed active substance [5, 9] | portion of decomposed active substance [5, 10] | portion of decomposed active substance [5, 11] | portion of decomposed active substance [5, 12] | solubility in citric acid solution [13] | solubility in citric acid solution (Granulation 2 without mannitol) | Compound | appearance / agglomerates of the salt as produced [1] | other results
1 | unchanged | unchanged | unchanged | does not form any agglomerates | 98.1% | 19.9 ± 0.02 μm | 53.0 ± 0.09 μm | 120.5 ± 0.66 μm | 1.2 | 2.7 | no water absorption | – | – | – | – | – | – | – | – | Rasagiline Oxalate | white crystal powder which is free of agglomerates | solubility ([3]; 0.1 N HCl): 29.9 mg/mL; solubility ([3]; Demineralized water): 19.7 mg/mL; pH of the saturated solution ([3]; USP acetate buffer, pH 4.5): 3.4; solubility ([3]; USP acetate buffer, pH 4.5): 24.3 mg/mL; pH of the saturated solution ([3]; USP phosphate buffer, pH 6.8): 3.4; solubility ([3]; USP phosphate buffer, pH 6.8): 24.2 mg/mL; solubility in words [3]: much more difficult to dissolve
2 | – | – | – | – | – | – | – | – | – | – | – | 2.9% | 0.00% | 3.0% | 0.00% | 2.5% | 0.00% | high | high | rasagiline phosphate | – | agglomerates after storage [1]: agglomerates; appearance after storage under humid conditions [6]: sticky powder which is difficult to process; total content of chemical contaminations ([6]; 4 weeks): 0.05%; water content ([6]; 4 weeks): 0.2%; total content of chemical contaminations ([6]; 8 weeks): 0.19%; water content ([6]; 8 weeks): 0.4%; total content of chemical contaminations ([6]; t0): 0.0%; water content ([6]; t0): 0.1%
3 | – | – | – | – | – | – | – | – | – | – | – | – | – | – | – | – | – | – | – | C#CCN[C@@H]1CCc2ccccc21 [Rasagiline hydrochloride] | – | portion of decomposed active substance ([5]; Direct compression without mannitol, 4 weeks, hydrochloride): 1.5%; portion of decomposed active substance ([5]; Granulation 1 with mannitol (55%), 4 weeks, hydrochloride): 2.4%; portion of decomposed active substance ([5]; Granulation 2 without mannitol, 4 weeks, hydrochloride): 1.9%
4 | unchanged | unchanged | unchanged | does not form any agglomerates | 100.0% | 2.7 ± 0.01 μm | 12.8 ± 0.08 μm | 35.1 ± 0.36 μm | 1.0 | 4.4 | no water absorption | 0.40% | 0.00% | 1.4% | 0.00% | 0.79% | 0.00% | very high | very high | C#CCN[C@@H]1CCc2ccccc21.C#CCN[C@@H]1CCc2ccccc21.O=S(=O)(O)CCS(=O)(=O)O [Rasagiline edisilate, Rasagiline Edisilate] | white crystal powder which is free of agglomerates | appearance ([6]; 4 weeks): unchanged; appearance ([6]; 8 weeks): unchanged; appearance ([6]; 12 weeks): unchanged; pH of the saturated solution ([3]; USP acetate buffer, pH 4.5): 4.4; pH of the saturated solution ([3]; USP phosphate buffer, pH 6.8): 6.2; solubility in words [3]: dissolves very rapidly and well
5 | unchanged | unchanged | unchanged | – | 97.2% | 5.0 ± 0.04 μm | 40.9 ± 0.57 μm | 161.2 ± 1.34 μm | – | – | – | 2.5% | 0.00% | 3.1% | 0.00% | 2.8% | 0.00% | – | – | rasagiline tartrate | undesired agglomerates | appearance ([6]; 4 weeks): unchanged; appearance ([6]; 8 weeks): unchanged; appearance ([6]; 12 weeks): unchanged

Row | Compound | appearance ([1]; 4 weeks) | appearance ([1]; 8 weeks) | appearance ([1]; 12 weeks) | formation of agglomerates after long storage [1] | fraction ≦ 250 μm [2] | d(0.1) ± SD [2] | d(0.5) ± SD [2] | d(0.9) ± SD [2] | pH of the saturated solution ([3]; 0.1 N HCl) | pH of the saturated solution ([3]; Demineralized water) | water absorption (hygroscopicity) [4] | portion of decomposed active substance [5, 7] | portion of decomposed active substance [5, 8] | portion of decomposed active substance [5, 9] | portion of decomposed active substance [5, 10] | portion of decomposed active substance [5, 11] | portion of decomposed active substance [5, 12] | solubility in citric acid solution [13] | solubility in citric acid solution (Granulation 2 without mannitol) | appearance / agglomerates of the salt as produced [1] | other results
6 | C#CCN[C@@H]1CCc2ccccc21 [Rasagiline mesylate, rasagiline mesylate] | – | – | – | – | 100.0% | 13.6 ± 0.05 μm | 40.5 ± 0.25 μm | 85.7 ± 0.89 μm | – | – | absorbed large amounts of water and liquefied | 0.46% | 0.00% | 2.6% | 0.00% | 1.3% | 0.00% | very high | very high | – | agglomerates after storage [1]: agglomerates; appearance after storage under humid conditions [6]: sticky powder which is difficult to process
